Measurements taken from PubChem BioAssay AID2060500 (Molecular Pharmacology Branch, DTP, NCI, 2025).

Tested on: 596521-263-R-J1-PDC complex spheroids, viability % of control
Test: Anticancer human tumor 596521-263-R-J1-PDC patient-derived soft tissue sarcoma cell line growth inhibition [GQUAD]
Details: for IC50: curve of first compound; for viability, T/C: stronger effect = lower value
Excerpt: DNA G-quadruplex Stabilizer Agents in Combinations in Complex Spheroids
A high-throughput screen of multi-cell type tumor spheroids was designed to identify active combinations of DNA G-quadruplex stabilizer agents and targeted small molecules. Complex spheroids include a stromal component modeled by human endothelial cells (HUVEC) and fibroblasts modeled by human mesenchymal stem cells (MSCs). The concentration ranges selected for each drug and investigational agent were based upon clinically achievable concentrations if the clinical Cmax of the agent was known.
Compounds. The drugs and investigational agents: pidnarulex (CX-5461; NSC782164), APTO-253 (NSC789042), BRACO-19 (NSC847499), peposertib (NSC802822), ceralasertib (NSC780249), elimusertib (NSC800525), camonsertib (NSC841442), AZD-1390 (NSC803789), olaparib (NSC753686), talazoparib (NSC767125), ART-558 (NSC835418), sotorasib (NSC818433), MRTX-1133 (NSC836407), SN-38 (NSC673596), topotecan (NSC609699), etoposide (NSC141540), doxorubicin (NSC123127), gemcitabine (NSC613327), 5-fluorouracil (NSC19893), paclitaxel (NSC125973), vemurafenib (NSC761431), panobinostat (NSC761190), R-306465 (JNJ-16241199; NSC773264), adavosertib (NSC754352), TP-3654 (NSC805149), carboplatin (NSC241240), KSQ-4279 (NSC840948), and staurosporine (NSC755774) were obtained from the National Cancer Institute (NCI) Developmental Therapeutics Program Chemical Repository (34). The FDA-approved anticancer drug set is available from the NCI Developmental Therapeutics Program. […] The stock solutions were prepared in dimethyl sulfoxide (DMSO, Sigma-Aldrich, St. Louis, MO, cat. D2650) at 800-fold the tested concentration and stored at -70 degrees C prior to their use. All drugs and investigational agents were tested over a range starting from a high concentration at or near the clinical Cmax and decreasing in half-log increments. If the clinical Cmax for an agent had not been determined, the highest concentration tested was 10 microM.
2.3 Cell Culture. All cells were maintained in an incubator at 37 degrees C and 5% CO2 with 95% humidity. The PDC lines were cultured according to standard operating procedures established by the NCI PDMR. All PDCs were thawed and cultured in Matrigel-coated flasks prepared with a working solution of 1X Ham's F-12 nutrient mix, without supplementation (Invitrogen, cat. 11765054), 100 U/mL penicillin-streptomycin (Invitrogen, cat. 15140122), and 2.5% Matrigel (Corning Inc., cat. 354248) for the first three passages. The 857933-349-R-J2-PDC line was cultured in 6C/Colon 1B media, which includes advanced DMEM/F-12 (Thermo Fisher Scientific, cat. 12634028), 10 mM HEPES (Thermo Fisher Scientific, cat. 15630080), 1X GlutaMAX supplement (Thermo Fisher Scientific, cat. 35050061), 0.1 mg/mL primocin (InvivoGen, cat. ant-pm-2), 10% defined fetal bovine serum, heat inactivated (HyClone Laboratories Inc., cat. SH30070.03HI), 50% L-WRN conditioned media (ATCC, cat. CRL-3276), 1.25 mM N-Acetyl-L-cysteine (Sigma-Aldrich, cat. A9165), 10 mM nicotinamide (Sigma-Aldrich, cat. N0636), 1X B-27 supplement (Thermo Fisher Scientific, cat. 17504044), 1X N-2 supplement (Thermo Fisher Scientific, cat. 17502048), 10 microM Y-27632 dihydrochloride (Tocris Bioscience, cat. 1254), and 50 ng/mL human EGF recombinant protein (Thermo Fisher Scientific, cat. PHG0311). The 485176-168-R4-J1-PDC line was cultured in Panc media, which includes all 6C/Colon 1B media components plus 100 ng/mL human FGF-10 (Thermo Fisher Scientific, cat. 100-26), 500 nM SB-431542 (Selleckchem, cat. S1067), and gastrin (Tocris, cat. 3006).
[…]

[1] = second compound 0.0316 µM, first compound 0.0316 µM
[2] = second compound 0.0316 µM, first compound 0.316 µM
[3] = second compound 0.1 µM, first compound 0.0316 µM
[4] = second compound 0.1 µM, first compound 0.316 µM
[5] = second compound 0.316 µM, first compound 0.0316 µM
[6] = second compound 0.316 µM, first compound 0.316 µM
[7] = second compound 1 µM, first compound 0.0316 µM
[8] = second compound 1 µM, first compound 0.316 µM
[9] = second compound 3.16 µM, first compound 0.0316 µM
[10] = second compound 3.16 µM, first compound 0.316 µM
[11] = second compound 10 µM, first compound 0.0316 µM
[12] = second compound 10 µM, first compound 0.316 µM
[13] = second compound 0.0316 µM, first compound 0.1 µM
[14] = second compound 0.0316 µM, first compound 1 µM
[15] = second compound 0.0316 µM, first compound 3.16 µM
[16] = second compound 0.0316 µM, first compound 10 µM
[17] = second compound 0.1 µM, first compound 0.1 µM
[18] = second compound 0.1 µM, first compound 1 µM
[19] = second compound 0.1 µM, first compound 3.16 µM
[20] = second compound 0.1 µM, first compound 10 µM
[21] = second compound 0.316 µM, first compound 0.1 µM
[22] = second compound 0.316 µM, first compound 1 µM
[23] = second compound 0.316 µM, first compound 3.16 µM
[24] = second compound 0.316 µM, first compound 10 µM
[25] = second compound 1 µM, first compound 0.1 µM
[26] = second compound 1 µM, first compound 1 µM
[27] = second compound 1 µM, first compound 3.16 µM
[28] = second compound 1 µM, first compound 10 µM
[29] = second compound 3.16 µM, first compound 0.1 µM
[30] = second compound 3.16 µM, first compound 1 µM
[31] = second compound 3.16 µM, first compound 3.16 µM
[32] = second compound 3.16 µM, first compound 10 µM
[33] = second compound 10 µM, first compound 0.1 µM
[34] = second compound 10 µM, first compound 1 µM
[35] = second compound 10 µM, first compound 3.16 µM
[36] = second compound 10 µM, first compound 10 µM
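Note: spheroids exposed to drugs for 7 days before viability reading.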

Compound `Cn1ncnc1[C@H]1c2n[nH]c(=O)c3cc(F)cc(c23)N[C@@H]1c1ccc(F)cc1` + Cc1cnc(CNC(=O)c2c(=O)c3ccc(N4CCCN(C)CC4)nc3n3c2sc2ccccc23)cn1 has an IC50 (second compound 0.0316 µM) of over 316 nM, an IC50 (second compound 0.1 µM) of over 316 nM and an IC50 (second compound 0.316 µM) of over 316 nM. It also gave an IC50 (second compound 1 µM) of over 316 nM, an IC50 (second compound 3.16 µM) of over 316 nM and an IC50 (second compound 10 µM) of 103 nM. The viability, T/C (second compound 0.0316 µM, first compound 0.000999 µM) was 108%, the viability, T/C (second compound 0.0316 µM, first compound 0.00316 µM) was 83.4% and the viability, T/C (second compound 0.0316 µM, first compound 0.00999 µM) was 94.5%. The viability, T/C [1] was 90.2%, the viability, T/C (second compound 0.0316 µM, first compound 0.0999 µM) was 90.2% and the viability, T/C [2] was 71.2%. It also gave a viability, T/C (second compound 0.1 µM, first compound 0.000999 µM) of 88.5%, a viability, T/C (second compound 0.1 µM, first compound 0.00316 µM) of 84% and a viability, T/C (second compound 0.1 µM, first compound 0.00999 µM) of 72.3%. For the same compound, the viability, T/C [3] was 81.2%, the viability, T/C (second compound 0.1 µM, first compound 0.0999 µM) was 74.6% and the viability, T/C [4] was 64.7%. It also gave a viability, T/C (second compound 0.316 µM, first compound 0.000999 µM) of 81.3%, a viability, T/C (second compound 0.316 µM, first compound 0.00316 µM) of 71.1% and a viability, T/C (second compound 0.316 µM, first compound 0.00999 µM) of 86.4%. For the same compound, the viability, T/C [5] was 68.5%, the viability, T/C (second compound 0.316 µM, first compound 0.0999 µM) was 76% and the viability, T/C [6] was 65.9%. The viability, T/C (second compound 1 µM, first compound 0.000999 µM) was 74.1%, the viability, T/C (second compound 1 µM, first compound 0.00316 µM) was 66.2% and the viability, T/C (second compound 1 µM, first compound 0.00999 µM) was 60.5%. For the same compound, the viability, T/C [7] was 53.7%, the viability, T/C (second compound 1 µM, first compound 0.0999 µM) was 60% and the viability, T/C [8] was 59.7%. The viability, T/C (second compound 3.16 µM, first compound 0.000999 µM) was 55.9%, the viability, T/C (second compound 3.16 µM, first compound 0.00316 µM) was 56.4% and the viability, T/C (second compound 3.16 µM, first compound 0.00999 µM) was 54%. It also gave a viability, T/C [9] of 55.7%, a viability, T/C (second compound 3.16 µM, first compound 0.0999 µM) of 56.5% and a viability, T/C [10] of 53%. For the same compound, the viability, T/C (second compound 10 µM, first compound 0.000999 µM) was 52.9%, the viability, T/C (second compound 10 µM, first compound 0.00316 µM) was 40.3% and the viability, T/C (second compound 10 µM, first compound 0.00999 µM) was 56.2%. For the same compound, the viability, T/C [11] was 50.1%, the viability, T/C (second compound 10 µM, first compound 0.0999 µM) was 52.8% and the viability, T/C [12] was 32.2%.
With `Nc1ccn(C2OC(CO)C(O)C2(F)F)c(=O)n1` (stereo unspecified) + Cc1cnc(CNC(=O)c2c(=O)c3ccc(N4CCCN(C)CC4)nc3n3c2sc2ccccc23)cn1 the IC50 (second compound 0.0316 µM) was 78.7 nM, the IC50 (second compound 0.1 µM) was 308 nM and the IC50 (second compound 0.316 µM) was 68 nM. It also gave an IC50 (second compound 1 µM) of 77.2 nM, an IC50 (second compound 3.16 µM) of under 31.6 nM and an IC50 (second compound 10 µM) of under 31.6 nM. For the same compound, the viability, T/C [1] was 58.3%, the viability, T/C [13] was 44.5% and the viability, T/C [2] was 49.4%. The viability, T/C [14] was 51%, the viability, T/C [15] was 47.4% and the viability, T/C [16] was 46.8%. It also gave a viability, T/C [3] of 60.1%, a viability, T/C [17] of 51% and a viability, T/C [4] of 53.3%. The viability, T/C [18] was 44.7%, the viability, T/C [19] was 38.6% and the viability, T/C [20] was 35.3%. For the same compound, the viability, T/C [5] was 61.2%, the viability, T/C [21] was 43.9% and the viability, T/C [6] was 43.9%. It also gave a viability, T/C [22] of 49.8%, a viability, T/C [23] of 41.6% and a viability, T/C [24] of 41.8%. The viability, T/C [7] was 59.6%, the viability, T/C [25] was 47.6% and the viability, T/C [8] was 42%. It also gave a viability, T/C [26] of 47.6%, a viability, T/C [27] of 52.2% and a viability, T/C [28] of 43%. For the same compound, the viability, T/C [9] was 47.9%, the viability, T/C [29] was 41.9% and the viability, T/C [10] was 42.2%. For the same compound, the viability, T/C [30] was 40.2%, the viability, T/C [31] was 40.9% and the viability, T/C [32] was 42.6%. It also gave a viability, T/C [11] of 47%, a viability, T/C [33] of 35.5% and a viability, T/C [12] of 38.9%. For the same compound, the viability, T/C [34] was 39.6%, the viability, T/C [35] was 42.7% and the viability, T/C [36] was 23.4%.
In the case of `O=c1[nH]cc(F)c(=O)[nH]1` + Cc1cnc(CNC(=O)c2c(=O)c3ccc(N4CCCN(C)CC4)nc3n3c2sc2ccccc23)cn1, the IC50 (second compound 0.0316 µM) is reported as over 10000 nM, the IC50 (second compound 0.1 µM) is reported as over 10000 nM and the IC50 (second compound 0.316 µM) is reported as over 10000 nM. The IC50 (second compound 1 µM) was over 10000 nM, the IC50 (second compound 3.16 µM) was over 10000 nM and the IC50 (second compound 10 µM) was under 31.6 nM. It also gave a viability, T/C [1] of 109%, a viability, T/C [13] of 112% and a viability, T/C [2] of 100%. It also gave a viability, T/C [14] of 99.7%, a viability, T/C [15] of 111% and a viability, T/C [16] of 84.7%. The viability, T/C [3] was 100%, the viability, T/C [17] was 84.9% and the viability, T/C [4] was 89.4%. It also gave a viability, T/C [18] of 88.5%, a viability, T/C [19] of 104% and a viability, T/C [20] of 87.4%. It also gave a viability, T/C [5] of 78.9%, a viability, T/C [21] of 82.8% and a viability, T/C [6] of 69.5%. It also gave a viability, T/C [22] of 72.5%, a viability, T/C [23] of 82.7% and a viability, T/C [24] of 76.7%. The viability, T/C [7] was 68.2%, the viability, T/C [25] was 66% and the viability, T/C [8] was 71.3%. The viability, T/C [26] was 72.2%, the viability, T/C [27] was 76% and the viability, T/C [28] was 69.9%. It also gave a viability, T/C [9] of 54.8%, a viability, T/C [29] of 59.9% and a viability, T/C [10] of 51.3%. It also gave a viability, T/C [30] of 49.8%, a viability, T/C [31] of 63.2% and a viability, T/C [32] of 51.4%. For the same compound, the viability, T/C [11] was 49%, the viability, T/C [33] was 49.6% and the viability, T/C [12] was 49.2%. For the same compound, the viability, T/C [34] was 49.4%, the viability, T/C [35] was 54.7% and the viability, T/C [36] was 47.6%.
